One may read the IC50 as the concentration that inhibits the measured activity by half. Broadly, the kcat is the maximal rate divided by the concentration of active sites.

Read-outs that look alike come from different tables or passages of the source.

Data on five compounds can be found in US20090232762A1, “COMPOSITIONS FOR DELIVERY OF THERAPEUTIC AGENTS” (priority 2008, published 2009).

Data set [1] relates to MDA-MB-231. Particulars: reported on the National Cancer Institute website; cited from earlier work.
Data set [2] concerns MDA-MB-231. The data set can be described thus: 5FU toxicity in MDA-MB-231 (drug concentration vs. % cell death, Hill-Slope fit). It counts as cell-based. To be noted: Homo sapiens; MDA-MB-231, % cell death, Hill-Slope curve fit.
For data set [3] the following is noted: cited from earlier work; for LogP (Drug): drug named.
The next data set has as its target T1, yCD-His (Saccharomyces cerevisiae, UniProt Q12178).
T1 construct: The resulting 474 bp gene was subcloned into pET-15b; made in house; host or cells: E. coli BL21(DE3)
The data set can be described thus: Enzyme activity of yCD-His (substrate turnover). The data set is classed as biochemical, S. cerevisiae. On the procedure: (§1) The S. cerevisiae yeast cytosine deaminase (yCD) enzyme was cloned and expressed. The resulting 474 bp gene was subcloned into pET-15b to facilitate purification of the protein via a fused histidine tag and transformed into competent BL21(DE3) cells for protein expression. An estimate of about 25-30 mg of pure yCD-His was collected from a 1-liter culture. Thrombin cleavage of the histidine tag on yCD-His was achieved by incubating the protein for 2 hours at 23° C. in thrombin cleavage buffer. Enzyme activity characteristics for yCD and yCD-His was investigated using both the prodrug 5FC and the enzyme's natural substrate, the DNA base cytosine. Five-FC turnover rates remained within 10^5 M^−1·s^−1 (Table 1) for both proteins (see E. Kievit et al. Cancer Res. 2000, 60:6649-6655). The diffusion controlled limit for extremely efficient enzymes and their substrates in solution is in the range 10^8-10^9 M^−1·s^−1, therefore it was concluded that yCD was a very efficient pretargeting enzyme for catalyzing 5FC to 5FU conversion, especially applicable to GDEPT.

The next data set concerns the target T2, yCD (Saccharomyces cerevisiae, UniProt Q12178).
T2 construct: The resulting 474 bp gene was subcloned into pET-15b; histidine tag (pET-15b) (N, cleaved yes); made in house; host or cells: E. coli BL21(DE3)
The data set can be described thus: Enzyme activity of yCD (His tag cleaved). It counts as biochemical, S. cerevisiae. The protocol: as §1

T2 sequence (Q12178 whole entry): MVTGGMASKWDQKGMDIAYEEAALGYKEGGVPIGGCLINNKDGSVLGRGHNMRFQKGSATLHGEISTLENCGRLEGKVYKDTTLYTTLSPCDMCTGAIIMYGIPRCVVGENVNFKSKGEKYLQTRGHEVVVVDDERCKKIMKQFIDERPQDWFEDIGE
T1 sequence (Q12178 whole entry): as above

For the compound `O=c1[nH]cc(F)c(=O)[nH]1` [5-FU, 5-fluorouracil], the results for the IC50 in the data set with MDA-MB-231 [1] and in the data set on MDA-MB-231 [2] were 0.9 µM and 2.9 µM, respectively. Also, the “LogP (Drug)” value in data set [3] was −2.17.
Consider `CCc1c2c(nc3ccc(O)cc13)-c1cc3c(c(=O)n1C2)COC(=O)[C@]3(O)CC` [SN-38, 7-ethyl-10-hydroxycamptothecin], for which the “LogP (Drug)” value in data set [3] was “+2.02”.
For `COc1cccc2c1C(=O)c1c(O)c3c(c(O)c1C2=O)C[C@@](O)(C(=O)CO)C[C@@H]3O[C@H]1C[C@H](N)[C@H](O)[C@H](C)O1` [DOX, doxorubicin], in data set [3], the “LogP (Drug)” value is recorded as “+0.36”.
As for `Nc1nc(=O)[nH]cc1F` [5-FC, 5-fluorocytosine], the turnover number (kcat) on yCD-His was 315 s⁻¹; on yCD, 448 s⁻¹. The “LogP (Prodrug)” value in data set [3] (prodrug column) was −1.79.
As to `Nc1cc[nH]c(=O)n1` [Cytosine, cytosine], the figures for the kcat at yCD-His and on yCD were 607 s⁻¹ and 741 s⁻¹, respectively.
